Measurements published in US11939300B2, “Compounds and methods for treating autoimmune disorders by targeting HLA-DQ2” (ImmunoMolecular Therapeutics, Inc., priority 2020, dated 2024).

System: HLA-DQ2
Test: Inhibition of IL-2 secretion by TCR transductants stimulated by α-gliadin peptides presented by HLA-DQ2 expressing K562 cells (ELISA)
Type: cell-based, human
Details: for DQ2 IL2 Maximal % Inhibition: IL-2 secretion, TCR transductants (α I- or α II-gliadin) + gliadin peptide + HLA-DQ2 K562 cells, at the concentration given in brackets; for concentration at which the compound exhibited maximum % inhibition (DQ2 IL2): from dose-response curve, figure in brackets in the cell
Protocol: Three commercially available analogues of the DQ2 binding molecules of the invention were tested for their ability to inhibit stimulation of T cell receptor (TCR) transductants in the presence of HLA-DQ2 expressing cells presenting known α-gliadin epitopes.
Using a previously published in vitro assay (Ostrov D, et al. Methyldopa blocks MHC class II binding to disease specific antigens in autoimmune diabetes. J Clin Invest. 2018:128(5)) we measured the ability of these DQ2 binding analogues to inhibit interleukin-2 (IL-2) secretion by TCR transductants stimulated by α-gliadin peptides presented by HLA-DQ2. Individual TCR transductants (recognizing α I-gliadin or α II-gliadin) were cultured with a gliadin peptide plus the small molecule analogues in the presence of HLA-DQ2 expressing K562 cells serving as antigen presenting cells. TCR transductants cultured with no gliadin peptide served as the negative control, and incubation with an anti-CD3 antibody (eBioscience; clone 2C11) served as a positive control for the TCR transductant. Secreted IL-2 in the culture supernatant was measured using a highly sensitive enzyme-linked immunosorbent assay (ELISA). […] Assays for effects on cell viability and for specificity, assayed in the absence of gliadin peptide or in the presence of a stimulating anti-CD3 antibody, were performed. A=71-100%; B=41-70%; C=11-40%; D=0-10%, NT=Not tested.

SMILES	DQ2 IL2 Maximal % Inhibition	concentration at which the compound exhibited maximum % inhibition (DQ2 IL2) [µM]
O=C(NC1CCc2n[nH]c(=O)cc2C1)c1ccccc1 (stereo not shown) [Compound 1]	C (C=11-40%)	50
Cc1ccc(C(=O)NC2CCc3n[nH]c(=O)cc3C2)cc1 (stereo not shown) [Compound 2]	C (C=11-40%)	100
CCCc1ccc(C(=O)NC2CCc3n[nH]c(=O)cc3C2)cc1 (stereo not shown) [Compound 3]	B (B=41-70%)	100
CC(C)c1ccc(C(=O)NC2CCc3n[nH]c(=O)cc3C2)cc1 (stereo not shown) [Compound 4]	A (A=71-100%)	200
CCCCc1ccc(C(=O)NC2CCc3n[nH]c(=O)cc3C2)cc1 (stereo not shown) [Compound 5, 4-n-butyl-N-(3-oxo-5,6,7,8-tetrahydrocinnolin-6-yl)benzamide]	D (D=0-10%)	50
CC(=O)NC1CCc2n[nH]c(=O)cc2C1 (stereo not shown) [Compound 6]	C (C=11-40%)	50
CCC(=O)NC1CCc2n[nH]c(=O)cc2C1 (stereo not shown) [Compound 7]	D (D=0-10%)	200
CCCC(=O)NC1CCc2n[nH]c(=O)cc2C1 (stereo not shown) [Compound 8]	D (D=0-10%)	200
CCCCC(=O)NC1CCc2n[nH]c(=O)cc2C1 (stereo not shown) [Compound 9]	C (C=11-40%)	100
CC(C)(C)C(=O)NC1CCc2n[nH]c(=O)cc2C1 (stereo not shown) [Compound 10]	D (D=0-10%)	200
O=C(NC1CCc2n[nH]c(=O)cc2C1)C1CC1 (stereo not shown) [Compound 11]	D (D=0-10%)	200
O=C(NC1CCc2n[nH]c(=O)cc2C1)C1CCCCC1 (stereo not shown) [Compound 12]	C (C=11-40%)	0.1
CC(C)(C)c1ccc(C(=O)NC2CCc3n[nH]c(=O)cc3C2)cc1 (stereo not shown) [Compound 13]	D (D=0-10%)	0.1
O=C(NC1CCc2n[nH]c(=O)cc2C1)c1ccc(C2CCCCC2)cc1 (stereo not shown) [Compound 14]	B (B=41-70%)	200
CC(C)C(=O)NC1CCc2n[nH]c(=O)cc2C1 (stereo not shown) [Compound 15]	C (C=11-40%)	100
Cn1nc2c(cc1=O)CC(NC(=O)c1ccccc1)CC2 (stereo not shown) [Compound 16, N-(2-methyl-3-oxo-5,6,7,8-tetrahydrocinnolin-6-yl)benzamide]	B (B=41-70%)	100
Cn1nc2c(cc1=O)CC(NC(=O)c1ccc3ccccc3c1)CC2 (stereo not shown) [Compound 17]	A (A=71-100%)	100
CC(=O)NC1CCc2nn(C)c(=O)cc2C1 (stereo not shown) [Compound 18]	C (C=11-40%)	100

SMILES	DQ2 IL2 Maximal % Inhibition	concentration at which the compound exhibited maximum % inhibition (DQ2 IL2) [µM]
Cn1nc2c(cc1=O)CC(NC(=O)C1CCCCC1)CC2 (stereo not shown) [Compound 19]	B (B=41-70%)	100
Cc1ccc(C(=O)NC2CCc3nn(C)c(=O)cc3C2)cc1 (stereo not shown) [Compound 20]	B (B=41-70%)	200
Cn1nc2c(cc1=O)CC(NC(=O)c1ccc(C(F)(F)F)cc1)CC2 (stereo not shown) [Compound 21]	A (A=71-100%)	100
Cn1nc2c(cc1=O)CC(NC(=O)c1cccc3ccccc13)CC2 (stereo not shown) [Compound 22]	C (C=11-40%)	200
CCCC(=O)NC1CCc2nn(C)c(=O)cc2C1 (stereo not shown) [Compound 23]	C (C=11-40%)	100
Cn1nc2c(cc1=O)CC(NC(=O)C(C)(C)C)CC2 (stereo not shown) [Compound 24]	C (C=11-40%)	100
Cn1nc2c(cc1=O)CC(NC(=O)C1CC1)CC2 (stereo not shown) [Compound 25]	C (C=11-40%)	200
O=C(NC1CCc2n[nH]c(=O)cc2C1)c1ccc(F)cc1 (stereo not shown) [Compound 28]	C (C=11-40%)	200
O=C(NC1CCc2n[nH]c(=O)cc2C1)c1ccc(Cl)cc1 (stereo not shown) [Compound 29]	B (B=41-70%)	200
O=C(NC1CCc2n[nH]c(=O)cc2C1)c1ccc(Br)cc1 (stereo not shown) [Compound 30]	C (C=11-40%)	200
O=C(NC1CCc2n[nH]c(=O)cc2C1)c1ccc(I)cc1 (stereo not shown) [Compound 31]	C (C=11-40%)	200
Cn1nc2c(cc1=O)CC(NC(=O)c1ccc(F)cc1)CC2 (stereo not shown) [Compound 32]	C (C=11-40%)	200
Cn1nc2c(cc1=O)CC(NC(=O)c1ccc(Cl)cc1)CC2 (stereo not shown) [Compound 33]	B (B=41-70%)	200
Cn1nc2c(cc1=O)CC(NC(=O)c1ccc(Br)cc1)CC2 (stereo not shown) [Compound 34]	A (A=71-100%)	200
Cn1nc2c(cc1=O)CC(NC(=O)c1ccc(I)cc1)CC2 (stereo not shown) [Compound 35]	B (B=41-70%)	200
CCc1ccc(C(=O)NC2CCc3nn(CC)c(=O)cc3C2)cc1 (stereo not shown) [Compound 36]	B (B=41-70%)	200
CCCn1nc2c(cc1=O)CC(NC(=O)c1ccc(CC)cc1)CC2 (stereo not shown) [Compound 37]	B (B=41-70%)	200
